Measured values published in patent US6169091A, “Bicyclic heteroaromatic compounds as protein tyrosine kinase inhibitors” (Glaxo Wellcome Inc., priority 1995, dated 2001).
Counter-ions that a name gives are not always drawn.

Key:
c-erbB-2 = biological target: T1, c-erbB-2 (Homo sapiens, UniProt P04626); assay: c-erbB-2 substrate phosphorylation assay (33P-labelled γ-phosphate from ATP onto PolyGluAlaTyr); assay type: biochemical; settings: 1 hour, room temperature, 100 μM ATP, 10 mM MnCl2, pH 7.4, 2% DMSO; recombinant intracellular domain of c-erbB-2
T1 construct: recombinant construct of the intracellular domain of c-erbB-2 that is constitutively active; made in house
T1 sequence (P04626 676-1255 limits assumed): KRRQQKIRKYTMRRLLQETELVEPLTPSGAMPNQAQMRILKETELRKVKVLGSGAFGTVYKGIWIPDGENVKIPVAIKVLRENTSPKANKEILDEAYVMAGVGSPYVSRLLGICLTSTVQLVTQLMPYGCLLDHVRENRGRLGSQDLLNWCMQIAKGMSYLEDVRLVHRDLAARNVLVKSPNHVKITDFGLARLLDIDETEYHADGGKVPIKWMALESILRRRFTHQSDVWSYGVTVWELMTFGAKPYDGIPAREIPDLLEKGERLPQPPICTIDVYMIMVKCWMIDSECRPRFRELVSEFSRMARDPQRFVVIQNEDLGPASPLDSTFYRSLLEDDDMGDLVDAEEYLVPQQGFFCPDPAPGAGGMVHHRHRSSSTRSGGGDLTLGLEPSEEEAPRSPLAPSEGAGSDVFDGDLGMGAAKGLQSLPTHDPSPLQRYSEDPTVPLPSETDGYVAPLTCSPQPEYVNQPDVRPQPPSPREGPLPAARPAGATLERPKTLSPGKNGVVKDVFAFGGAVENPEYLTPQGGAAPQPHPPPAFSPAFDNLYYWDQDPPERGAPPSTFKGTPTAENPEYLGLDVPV
Method: Compounds of the present invention were tested for protein tyrosine kinase inhibitory activity in a substrate phosphorylation assay and a cell proliferation assay. The substrate phosphorylation assay uses a baculovirus expressed, recombinant construct of the intracellular domain of c-erbB-2 that is constitutively active. […] The reaction is stopped by the addition of EDTA (final concentration 0.1M) and the peptide is then precipitated onto ion exchange filter paper and the incorporated radioactivity determined. The results are shown in the first column of Table 1 below as the IC50 values in nM.

HB4a erbB-2 cells = assay: cell proliferation assay, HB4a cells transformed by over-expression of c-erbB-2; assay type: cell-based; settings: Homo sapiens, 96 h, low serum, 4 days at 37° C., methylene blue, 0.5% DMSO
Method: (§1) Compounds of the present invention were tested for protein tyrosine kinase inhibitory activity in a substrate phosphorylation assay and a cell proliferation assay. The cell proliferation assay uses an immortalised human breast epithelial cell line (HB4a) which has been transformed by over-expression of c-erbB-2. Growth of these cells in low serum is dependent upon the c-erbB-2 tyrosine kinase activity. The specificity of the effect of the test compounds on tyrosine kinase dependent growth over general toxicity is assessed by comparison to an HB4a cell line which has been transfected with ras. Cells are plated at 3000/well in 96-well plates in 0.1 ml medium and allowed to attach overnight. test compound is added in 0.1 ml medium, with a final concentration of 0.5% DMSO, and the plates incubated for 4 days at 37° C. The cells are then examined microscopically for evidence of morphological detransformation and cell mass is estimated by staining with methylene blue and measuring the absorbance at 620 nm. The results are shown in the second and third columns of Table 1 below as the IC50 values in nM.

HB4a ras cells = assay: cell proliferation assay, HB4a cells transfected with ras; assay type: cell-based; settings: Homo sapiens, 96 h, 4 days at 37° C., methylene blue, 0.5% DMSO, control for general toxicity
Method: as §1

[1] = test system: EGF receptor tyrosine kinase; settings: Fry et al (Science, 265, 1093 (1994)); cited from earlier work
other tyrosine kinases = settings: Fry et al (Science, 265, 1093 (1994)); cited from earlier work
[2] = stated without data, in contrast to the compounds of the invention; cited from earlier work

Structure (SMILES)	IC50 (c-erbB-2) [nM]	IC50 (HB4a erbB-2 cells) [nM]	IC50 (HB4a ras cells) [nM]	inhibition of the EGF receptor tyrosine kinase [1]	inhibition of other tyrosine kinases (other tyrosine kinases)	in vivo activity [2]
Cc1csc2ncnc(Nc3ccc(Oc4ccccc4)cc3)c12 [Example 37, 5-Methyl4-(4-phenoxyanilino)thieno[2,3-d]pyrimidine hydrochloride]	650	17000	25000	–	–	–
Cn1nccc1-c1cc2c(Nc3ccc(OCc4ccccc4)cc3)ncnc2cn1 [Example 4, 4-(4-Benzyloxyanilino)-6-(N-methylpyrazol-2-yl)pyrido[3,4-d]pyrimidine]	124	2500	11000	–	–	–
O=S1(=O)CCN(c2cc3c(Nc4ccc(OCc5ccccc5)cc4)ncnc3cn2)CC1 [Example 11, 4-(4-Benzyloxyanilino)-6-(thiomorpholine-1,1-dioxide-4-yl)-pyrido[3,4-d]pyrimidine]	920	10000	37000	–	–	–
Clc1cc(Nc2ncnc3ccsc23)ccc1OCc1ccccc1Br [Example 26, 4-[4-(2-Bromobenzyloxy)-3-chloroanilino]thieno[3,2-d]pyrimidine hydrochloride]	230	2500	30000	–	–	–
O=S(=O)(c1ccccc1)c1ccc(Nc2ncnc3cnc(Cl)cc23)cc1 [Example 14, 6-Chloro-4-(4-phenylsulphonylanilino)pyrido[3,4-d]pyrimidine hydochloride]	900	15000	50000	–	–	–
Cc1csc2ncnc(Nc3ccc(OCC4CCCCC4)cc3)c12 [Example 36, 4-(4-Cyclohexylmethoxyanilino)-5-methylthieno[2,3-d]pyrimidine hydrochloride]	500	10000	10000	–	–	–
FC(F)(Oc1ccc(Nc2ncnc3ccsc23)cc1)c1ccccc1 [Example 30, 4-(4-(a,a-Difluorobenzyloxy)anilino)thieno[3,2-d]pyrimidine hydrochloride]	860	6000	15000	–	–	–
Fc1ccccc1COc1ccc(Nc2ncnc3ccsc23)cc1Cl [Example 25, 4-[3-Chloro-4-(2-fluorobenzyloxy)anilino]thieno[3,2-d]pyrimidine hydrochloride]	150	500	3000	–	–	–
c1ccc(COc2ccc(Nc3ncnc4ccsc34)cc2)cc1 [Example 23, 4-(4-Benzyloxyanilino)thieno[3,2-d]pyrimidine hydrochloride]	300	2000	5000	–	–	–
Cn1ccnc1-c1cc2c(Nc3ccc(OCc4ccccc4)cc3)ncnc2cn1 [Example 3, 4-(4-Benzyloxyanilino)-6-(N-methylimidazol-2-yl)pyrido[3,4-d]pyrimidine]	115	11000	44000	–	–	–
c1ccc(Oc2ccc(Nc3ncnc4scc(-c5cccs5)c34)cc2)cc1 [Example 38, 4-(4-Phenoxyanilino)-5-(2-thienyl)thieno[2,3-d]pyrimidine hydrochloride]	490	20000	20000	–	–	–
c1ccc(Oc2ccc(Nc3ncnc4ccsc34)cc2)cc1 [Example 29, 4-(4-Phenoxyanilino)thieno[3,2-d]pyrimidine hydrochloride]	110	5000	20000	–	–	–
COc1cc2ncnc(Nc3cccc(Br)c3)c2cc1OC	–	–	–	picomolar concentrations	micromolar or higher concentrations	does not however exhibit good in vivo activity
c1ccc(Cc2ccc(Nc3ncnc4ccsc34)cc2)cc1 [Example 28, 4-(4-Benzylanilino)thieno[3,2-d]pyrimidine hydrochloride]	200	3000	13000	–	–	–
Cc1csc2ncnc(Nc3ccc(OCc4ccccc4F)c(Cl)c3)c12 [Example 35, 4-[3-Chloro-4-(2-fluorobenzyloxy)anilino]-5-methylthieno[2,3-d]pyrimidine hydrochloride]	99	8000	25000	–	–	–
CN(C)CCN(C)c1cc2c(Nc3ccc(S(=O)(=O)c4ccccc4)cc3)ncnc2cn1 [Example 17, 6-[N-Methyl-N-(2-dimethylaminoethyl)amino]-4-(4-phenylsulphonylanilino)-pyrido[3,4-d]pyrimidine]	200	4400	10000	–	–	–
Clc1cc2c(Nc3ccc(OCc4ccccc4)cc3)ncnc2cn1 [Example 1, 4-(4-Benzyloxyanilino)-6-chloropyrido[3,4-]pyrimidine hydrochloride]	58	2700	17000	–	–	–

Second part, led by results:

IC50 (c-erbB-2) [nM]	Structure (SMILES)	IC50 (HB4a erbB-2 cells) [nM]	IC50 (HB4a ras cells) [nM]	inhibition of the EGF receptor tyrosine kinase [1]	inhibition of other tyrosine kinases (other tyrosine kinases)	in vivo activity [2]
5	CN(CCO)c1cc2c(Nc3ccc(S(=O)(=O)c4ccccc4)cc3)ncnc2cn1 [Example 18, 6-[N-Methyl-N-(2-hydroxyethyl)amino]-4-(4-phenylsulphonylanilino)pyrido[3,4-d]pyrimidine]	150	28000	–	–	–
10	CN(C)c1cc2c(Nc3ccc(OCC4OCCO4)cc3)ncnc2cn1 [Example 20, 6-(N,N-Dimethylamino)-4-[4-(1,3-dioxolan-2-yl)methoxyanilino]pyrido[3,4-d]pyrimidine]	2400	46000	–	–	–
26	Cn1cncc1-c1cc2c(Nc3ccc(OCc4ccccc4)cc3)ncnc2cn1 [Example 2, 4-(4-Benzyloxyanilino)-6-(N-methylimidazol-5-yl)pyrido[3,4-d]pyrimidine]	690	3700	–	–	–
24	CN(C)c1cc2c(Nc3ccc(Oc4ccccc4)cc3)ncnc2cn1 [Example 12, 6-N,N-Dimethylamino-4-(4-phenoxyanilino)pyrido[3,4-d]pyrimidine]	1600	31000	–	–	–
50	CN1CCN(c2cc3c(Nc4ccc(S(=O)(=O)c5ccccc5)cc4)ncnc3cn2)CC1 [Example 16, 6-(1-Methylpiperazin-4-yl)-4-(4-phenylsulphonylanilino)-pyrido[3,4-d]pyrimidine]	2400	6600	–	–	–
14	c1ccc(COc2ccc(Nc3ncnc4cnc(-c5ccco5)cc34)cc2)cc1 [Example 5, 4-(4-Benzyloxyanilino)-6-(furan-2-yl)pyrido[3,4-d]pyrimidine]	500	11000	–	–	–
20	CN1CCN(c2cc3c(Nc4ccc(OCc5ccccc5)cc4)ncnc3cn2)CC1 [Example 8, 4-(4-Benzyloxyanilino)-6-(1-methylpiperazin-4-yl)-pyrido[3,4-d]pyrimidine]	590	7500	–	–	–
30	CN(C)c1cc2c(Nc3ccc(S(=O)(=O)c4ccccc4)cc3)ncnc2cn1 [Example 15, 6-(N,N-Dimethylamino)-4-(4-phenylsulphonylanilino)pyrido[3,4-d]pyrimidine]	570	32000	–	–	–
50	COc1ccccc1COc1ccc(Nc2ncnc3ccsc23)cc1Cl [Example 24, 4-[3-Chloro-4-(2-methoxybenzyloxy)anilino]thieno[3,2-d]pyrimidine hydrochloride]	10000	18000	–	–	–
1.3	CN(C)c1cc2c(Nc3ccc(OCc4ccccc4)cc3)ncnc2cn1 [Example 7, 4-(4-Benzyloxyanilino)-6-(N,N-dimethylamino)pyrido[3,4-d]pyrimidine]	300	> 50000	–	–	–
